Consider nine compounds from patent US20210260069A1, “IRE1a INHIBITOR IN COMBINATION WITH CANCER [sequence] AGENT FOR CANCER TREATMENT” (Fosun Orinove PharmaTech, Inc., priority 2018, published 2021).

One assay deals with XBP1s. Put plainly: Determination of XBP1s level induced by various compounds (RT-qPCR splicing assay), several cell lines. In kind it is cell-based, human. To be noted: for induction of XBP1s: in a time, cell or concentration dependent manner; for ER stress measured by XBP1s level (FIG. 6): Hep G2, MCF-7 and RPMI 8226 cells, 1, 2 or 4 hours. How it is done: (§1) This method applies to any mammalian cell line but was typically applied to human MM1s myeloma cells for EC50 and RPMI […] plasmacytoma cells for confirmation of selected compounds. Briefly, cells were grown in standard conditions and spread into 96 well tissue culture plates. Cells were treated with compounds with indicated concentration using serial dilutions. DTT (dithiothreitol) or compounds were added at the same time and cells were harvested after indicated hour's treatment. Cells treated with DTT alone were used as 100% XBP1s positive controls and cell left untreated were used as base line XBP1s level.
(§2) Splicing Assay: Total RNA was isolated from cells treated with compounds using Applied Biosystems RNAqueous kit. 1 μg of total RNA was reverse transcribed using Oligo dt (12-18) (Invitrogen). The cDNA was then amplified at 95° C. for 8 min and 30 sec, then 40 cycles at 95° C. for 15 sec and 63° C. for 1 min. Samples were run against a purified standard curve for both spliced and unspliced XBP1, and further normalized to internal house-keeping gene GAPDH.
For orientation: Real-time PCR tracks product formation cycle by cycle.

Another assay deals with MCF-7 cells. Briefly: XBP1s level induced in MCF-7 cells. Type of assay: cell-based, human. How it is done:
as §1, §2
(§3) The same methods were used as above for Lestaurtinib.

In a further assay the test system is Hepatoma cells. Put plainly: XBP1s level induced in Hepatoma (Hep G2) cells. In kind it is cell-based, human. As to the method:
as §1, §2

A further assay relates to A549 cells. Briefly: XBP1s level induced in A549 cells. In kind it is cell-based, human. How it is done:
(§4) Briefly, cells were grown in standard conditions and spread into 96 well tissue culture plates. Cells were treated with compounds with indicated concentration using serial dilutions. DTT (dithiothreitol) or compounds were added at the same time and cells were harvested after indicated hour's treatment. Cells treated with DTT alone were used as 100% XBP1s positive controls and cell left untreated were used as base line XBP1s level.
as §2, §3

For a further assay, the system named is RPMI 8226 cells. Put plainly: XBP1s level induced in RPMI 8226 cells. Type of assay: cell-based, human. As to the method: as §4, §2, §3
For another assay, the system named is MM1s cells. Put plainly: XBP1s level induced in MM1s cells. In kind it is cell-based, human. How it is done: as §1, §2, §3
The next assay relates to Hep3B-Luc cells. Briefly: Orthotopic Hep3B-luc human liver xenograft model (Example 22). Type of assay: in vivo, female BALB/c nude mice. As to the method:
The tumor was inoculated by injecting Hep3B-Luc cells (established by WuXi AppTec R&D center) mixed with BD Matrigel in 20 μl (PBS:Matrigel=1:1) into the left lobe of the liver. […] Sorafenib was formulated with Cremophor® EL/ethanol (1:1) and purified water to form a solution of 9 mg/ml. […] Tumor weight was measured at the termination of study. T/Cweight value (in percent) was calculated using the formula: T/Cweight%=Tweight/Cweight×100%, while Tweight and Cweight were the mean tumor weights of the treated and the vehicle control groups, respectively.

A further assay has as its system human liver HUH-7 cells. Put plainly: Subcutaneous HUH-7 liver cancer xenograft model, survival (Example 23). In kind it is in vivo, Female BALB/c nude mice. As to the method:
Female BALB/c nude mice were subcutaneously inoculated with human liver HUH-7 cells (from JCRB) to establish a xenograft model of liver cancer. The scheduled administration cycle was 28 days. Animals were assigned into 4 groups (n=10/group): one vehicle group, two single treatment groups (Orin 1001 administered at 80 mg/kg/day q.d. for 28 days; Sorafenib administered following a dose regimen of 18.25 mg/kg/day q.d. for 5 days, then 25 mg/kg/day q.d. for 3 days, and then 45 mg/kg/day q.d. for 20 days, consecutively) and one combination treatment group (sorafenib administered following a dose regimen of 18.25 mg/kg/day q.d. for 5 days, then 25 mg/kg/day q.d. for 3 days, and then 45 mg/kg/day q.d. for 20 days, consecutively, whilst combined with Orin 1001 administered q.d. at a dose of 80 mg/kg/day for 28 days). All vehicle or administration treatments were given via oral gavage. Sorafenib was formulated with Kolliphor® EL/ethanol (2/1, v/v) and water. Orin 1001 was dissolved with cellulose microcrystalline and sucrose in purified water to form as suspension. The mice were euthanized if a tumor volume achieved over 2000 mm^3. Otherwise the experiment ended on the 6th day after the last administration.

The next assay concerns RPMI 8226 tumor cells. Briefly: Intratumoral XBP-1 spliced effect in Velcade treated RPMI xenografts. In kind it is in vivo, Nude mice. To be noted: Velcade 0.8 mg/kg IV on day 21 and day 24, RPMI 8226 xenograft. How it is done: The mice were treated again on the 24th day with Velcade®. On Day 27, the mice were treated with Orin 1001 at 30 mg/kg PO, four hours later the mice were sacrificed as in Example 25, and tumor tissues were isolated. In a similar way as described for the liver PD test in Example 25, RNA extraction and RT-PCR analysis gave the results as shown FIG. 13.
BALB/c mice were injected intraperitoneally with 100 microliters at an equivalent dose of 1 mg/kg tunicamycin solution. Two hours after tunicamycin injection, mice were dosed with compound of interest either PO or IV. Following 2 hours for PO delivery of compound, mice were euthanized according to IACUC protocols using CO2 from a […] source. A 1 cm^3 fragment of the liver for homogenization and extraction of the RNA were collected for further analysis. Total RNA is harvested from cells or tissue using TRIzol according to the manufacturer's procedures. After ethanol precipitation and resuspension of the RNA, RiboGreen (Invitrogen) is used to quantify the yield and normalize the RNA concentration in the source tube containing isolated RNA. RT-PCR is performed by Oligo(dT) priming, and SuperScript II (Invitrogen) transcription using the Amplitaq Gold Kit (Applied Biosystems) according to the manufacturer's protocols. […]

The subject of another assay is HT-29 cells. Put plainly: XBP1s level induced in HT-29 cells. Type of assay: cell-based, human. How it is done:
as §1, §2, §3

The structures appear in SMILES notation.

Regarding `C=CCNC1=C2C[C@@H](C)C[C@H](OC)[C@H](O)[C@@H](C)/C=C(\C)[C@H](OC(N)=O)[C@@H](OC)/C=C\C=C(/C)C(=O)NC(=CC1=O)C2=O` [17-AAG], in the assay on XBP1s, the “induction of XBP1s” value is on record as “able to induce XBP1s”. Also, the “levels of XBP1s” value with MCF-7 cells (1 hour of treatment) is “high levels”; with MCF-7 cells (2 hours of treatment) it was “modest levels”; in the assay on MCF-7 cells (4 hours of treatment), “low levels”; in the assay with Hepatoma cells (1 hour of treatment), “high levels”; in the assay on Hepatoma cells (2 hours of treatment) it was “modest levels”; in the assay with Hepatoma cells (4 hours of treatment) it was “low levels”.

As to `COc1cc2ncnc(Nc3ccc(F)c(Cl)c3)c2cc1OCCCN1CCOCC1` [Gefitinib], in the assay with XBP1s, the “induction of XBP1s” value is on record as “able to induce XBP1s”. In addition, the “levels of XBP1s” value with A549 cells (1 hour of treatment) is reported as “increasing”; in the assay with A549 cells (2 hours of treatment), “highest levels”.

Consider `Nc1ccn([C@@H]2O[C@H](CO)[C@@H](O)C2(F)F)c(=O)n1` [Gemcitabine], for which the “induction of XBP1s” value in the assay on XBP1s is “able to induce XBP1s”. The “levels of XBP1s” value with RPMI 8226 cells (1 hour of treatment) is listed as “low levels”; in the assay on RPMI 8226 cells (2 hours of treatment), “low levels”; in the assay with RPMI 8226 cells (4 hours of treatment), “high levels”.

In the case of `Cc1cn(-c2cc(NC(=O)c3ccc(C)c(Nc4nccc(-c5cccnc5)n4)c3)cc(C(F)(F)F)c2)cn1` [Nilotinib], the “induction of XBP1s” value with XBP1s was “able to induce XBP1s”. In addition, the XBP1s induced result was “modest amounts” in the assay with MM1s cells (1 hour of treatment), “greater than 50%” in the assay on MM1s cells (2 hours of treatment) and “modest amounts” with MM1s cells (4 hours of treatment).

`CNC(=O)c1cc(Oc2ccc(NC(=O)Nc3ccc(Cl)c(C(F)(F)F)c3)cc2)ccn1` [Sorafenib]: in the assay on XBP1s, the “induction of XBP1s” value is listed as “able to induce XBP1s”. The entries for the “levels of XBP1s” value with A549 cells (1 hour of treatment), with A549 cells (2 hours of treatment) and in the assay on A549 cells (4 hours of treatment) were “highest levels”, “highest levels” and “modest levels”, respectively. Also, the “T/Cweight (%)” value in the assay on Hep3B-Luc cells (mean tumor weight treated / vehicle control, day 28) is 19%. In addition, the “Tumor Weight (g) at day 28” value with Hep3B-Luc cells (oral gavage 28 consecutive days, Orin 1001 80 mg/kg/day, sorafenib 45 mg/kg/day) was determined as 0.91 ± 0.29 g. Besides, the “Median Survival Time (MST)” value with human liver HUH-7 cells (Orin 1001 80 mg/kg/day q.d. 28 days, sorafenib 18.25/25/45 mg/kg, Kaplan-Meier) amounted to 24 days. Besides, the “ILS (%) (increase of life span)” value in the assay on human liver HUH-7 cells (versus vehicle group (group 1)) is on record as 20%.

Consider `CO[C@H]1C[C@@H]2CC[C@@H](C)[C@@](O)(O2)C(=O)C(=O)N2CCCC[C@H]2C(=O)O[C@H]([C@H](C)C[C@@H]2CC[C@@H](OC(=O)C(C)(CO)CO)[C@H](OC)C2)CC(=O)[C@H](C)/C=C(\C)[C@@H](O)[C@@H](OC)C(=O)[C@H](C)C[C@H](C)/C=C/C=C/C=C/1C` [Torisel®, Temsirolimus], for which the “ER stress measured by XBP1s level (FIG. 6)” value in the assay on XBP1s is reported as “enhanced”. In the assay with XBP1s, the “induction of XBP1s” value is given as “able to induce XBP1s”. The “levels of XBP1s” value is on record as “high levels” in the assay with A549 cells (1 hour of treatment), “modest levels” in the assay on A549 cells (2 hours of treatment) and “high levels” in the assay with A549 cells (4 hours of treatment).

In the case of `Clc1ccc(Nc2nnc(Cc3ccncc3)c3ccccc23)cc1` [Vatalinib], in the assay on XBP1s, the “ER stress measured by XBP1s level (FIG. 6)” value is on record as “enhanced” and the “induction of XBP1s” value was “able to induce XBP1s”.

As for `CC(C)C[C@H](NC(=O)[C@H](Cc1ccccc1)NC(=O)c1cnccn1)B(O)O` [Velcade®, [(1R)-3-methyl-1-[[(2S)-1-oxo-3-phenyl-2-[(pyrazinylcarbonyl)amino]propyl]amino]butyl] boronic acid], the “level of XBP1s in tumor” value with RPMI 8226 tumor cells was “increased the level of XBP1s”.

Regarding `O=C(CCCCCCC(=O)Nc1ccccc1)NO` [Vorinostat], the “induction of XBP1s” value with XBP1s is given as “able to induce XBP1s”. The figures for the “levels of XBP1s” value with HT-29 cells (1 hour of treatment), in the assay on HT-29 cells (2 hours of treatment) and in the assay with HT-29 cells (4 hours of treatment) were “high levels”, “little” and “little”, respectively.
